The values below come from patent US9376466B2, “Peptide inhibitors of caspase 2 activation” (The Trustees of Columbia University in the city of New York, priority 2011, dated 2016).

What all share (type): cell-based, rat
For assay [1], the system named is Caspase 2 bound to endogenous RAIDD. Description: Caspase 2 and RAIDD co-immunoprecipitation in primary hippocampal neurons. The following applies: primary hippocampal neurons treated with AFDAFC-Pen1 prior to Aβ1-42; Western blot; FIG. 13. The method, then:
Caspase 2 and RAIDD Co-Immunoprecipitation (IP). Mouse IgG magnetized beads (Invitrogen) were pre-coated with a RAIDD antibody (anti-CRADD; Abnova) for 2 hrs at 4° C. on a rotator. 2 μg of antibody was used per 30 μl of beads. Primary rat hippocampal neurons were treated with Aβ1-42 (3 μM) for 1 or 2 hrs. Cell lysates were prepared using CHAPS lysis buffer. 70-120 μg of lysates were loaded onto anti-CRADD pre-coated beads and incubated overnight at 4° C. on a rotator. Following the overnight incubation, the captured proteins were boiled off the beads at 100° C. for 5 mins. The immunoprecipitated samples, along with inputs, were then subjected to Western blotting using affinity purified polyclonal anti-Caspase 2.
A general note: In western blotting, separated proteins are transferred to a membrane and probed.

In assay [2] the test system is primary hippocampal neurons. Description: Cell survival assay, primary hippocampal neurons treated with Aβ1-42. To be noted: AFDAFC-Pen1 final concentration 80 nM, survival quantified after 1 day, n=3, FIG. 7. On the procedure: Peptide Preparation: AFDAFC (SEQ ID NO: 1) was synthesized by Multiple Peptide Systems (San Diego, Calif.). Lyophilized peptide was resuspended in sterile ddH2O and linked in equimolar amounts with Pen1 (Troy et al. Proc. Natl. Acad. Sci. U.S.A. 93: 5635-5640 (1996)) for a stock concentration of 80 μM. AFDAFC-Pen1 was used at a final concentration of 80 nM.
Embryonic day 18 rat fetuses were removed from CO2-sacrificed pregnant Sprague Dawley rats (Charles River). The hippocampus was dissected out from surrounding tissue and the meninges completely removed. Pooled tissue was mechanically dissociated in a serum-free defined medium. […]
Cell Survival Assay. Hippocampal or sympathetic neuron survival was scored as previously reported (Troy et al., J Neurosci. 17:1911-8, 1997). […] Intact nuclei were quantified using a hemacytometer. Triplicate wells were scored and values reported as mean±SEM. Significance was calculated by Student's t-test. For sympathethic neurons, each culture was scored as numbers of living, phase-bright neurons counted in the same field at various times. Three replicate cultures were assessed for each condition, and data are normalized to numbers of neurons present in each culture at the time of Aβ1-42 addition or NGF deprivation and reported as mean±SEM.

The subject of a further assay is Bim. Description: Western blot of Bim protein in hippocampal neuron cultures. The following applies: primary hippocampal neurons treated with AFDAFC-Pen1 prior to Aβ1-42; FIG. 14. The method, then: Cell Culture of primary hippocampal neuron cultures. Neurons were cultured as previously described (Akpan et al., J Neurosci. 31:8894-904, 2011). Briefly, embryonic day 18 rat fetuses were removed from CO2-sacrificed pregnant Sprague Dawley rats (Charles River). The hippocampus was dissected from surrounding tissue and the meninges removed. Pooled hippocampi were mechanically dissociated in a serum-free defined medium. Medium consisted of a 1:1 mixture of Eagle's MEM and Ham's F12 (Invitrogen) supplemented with glucose (6 mg/ml), insulin (25 μg/ml), selenium (30 nM), progesterone (20 nM), transferrin (100 μg/ml), putrescine (60 μg/ml), penicillin (0.5 U/ml), and streptomycin (0.5 μg/ml). Dissociated cells were grown on poly-D-lysine coated plates or 8-well chamber slides. Neurons were cultured for 7 days prior to experimental treatments.
Western Blot. Hippocampal neurons or sympathetic neurons were lysed in CHAPS lysis buffer ([…], 50 mM HEPES, 0.1% CHAPS, protease inhibitor tablet, pH 7.4). Protein concentration was determined using BioRad protein assay reagent (Bio-Rad). Equal amounts of protein were loaded onto 10% or 12% polyacrylamide gels. […] Proteins were detected using either enhanced chemiluminescence (Thermo Scientific) or fluorescence using the Odyssey infrared imaging system (LI-COR Biosciences). The relative densities of immunopositive bands were analyzed using ImageJ.

“Also recorded” adds a separate entry of the source.

In the case of “AFDAFC-Pen1: Caspase 2 activation inhibitory peptide AFDAFC (SEQ ID NO: 1) conjugated to cell-penetrating peptide Pen1 (RQIKIWFQNRRMKWKK)”, the “Aβ1-42-induced binding of Caspase 2 to RAIDD” value in assay [1] is reported as “reduces Aβ1-42-induced binding of Caspase 2 to RAIDD”. Besides, the “Aβ-mediated cell death (survival)” value in assay [2] was “abrogates Aβ-mediated cell death”. The “Bim induction elicited by Aβ1-42 (protein level)” value with Bim is “preventing Bim induction; also recorded: prevents Bim induction”.
